What all share (format): in vivo, human
A short description of assay [1]: Intellectual development (WISC-III short form, FSIQ) in preterm children born small for gestational age. As to conditions: SGA glutamine group versus SGA control group, n=9 each. On the procedure: A subgroup of infants born small for gestational age (SGA <10th percentile) was identified and analysed separately. Intellectual development was analysed in this subgroup of infants by a short form of the Wechsler Intelligence Scale for Children-III (WISC-III), including the subtests Vocabulary and Block Design. Both subtests correlate strongly (r 0.90) with full-scale intelligence quotient (FSIQ). Scores on this test were normalised with a mean of 100 (SD 15). A group of nine SGA infants that received placebo was compared with a group of nine SGA infants that received glutamine treatment.

Assay [2] is described as follows: Brain cortical volumes by MRI at school age after enteral glutamine supplementation in the first month of life. The following applies: glutamine supplemented group versus control preterm group. On the procedure: (§1) A randomized, placebo controlled clinical trial was performed. For a detailed protocol of the study, see van den Berg et al, 2004, Glutamine-enriched enteral nutrition in very low birth weight infants. Design of a double-blind randomised controlled trial [ISRCTN73254583], BMC Pediatrics 4:17.
(§2) In short: Infants with a gestational age <32 weeks and/or birth weight <1500 g were enrolled. […] Also comparisons were made with a control group (n=52) of term born infants.
(§3) The two powders were indistinguishable by appearance, colour and smell. […] Initially, the supplementation dose was based on birth weight. After 2 weeks the dose was adjusted to actual body weight. Two members of the nursing staff daily added supplementation to breast milk or to preterm formula (Nenatal®, Nutricia Nederland B. V., Zoetermeer, The Netherlands), according to the parents' choice. Per 100 ml, Nenatal® provides 78 kcal, 2.1 g protein (casein-whey protein weight ratio 40:60), 4.4 g fat and 7.5 g carbohydrate. […] Protocol guidelines for the introduction of parenteral and enteral nutrition are disclosed in van den Berg et al., 2004.
(§4) All statistical analyses are performed on an intention to treat basis. […]
Brain cortical volumes were determined by MRI and calculated using FSL software “FAST” and corrected for age at MRI scan, gender and body weight for gestational age.

Assay [3] can be described thus: Brain subcortical volumes by MRI at school age after enteral glutamine supplementation in the first month of life. As to conditions: glutamine supplemented group versus control preterm group. The procedure: as §1, §2, §3, §4
Brain subcortical volumes were determined by MRI and calculated using FSL software “FAST” and corrected for age at MRI scan, gender and body weight for gestational age.

On to `NC(=O)CC[C@H](N)C(=O)O` [Glutamine, L-glutamine], for which the “IQ compared to SGA control group (in words)” value in assay [1] is recorded as “significant improvement”. The “White matter volume compared to preterm control group (in words)” value in assay [2] was “significantly higher”. In addition, in assay [3], the “Brain stem volume compared to preterm control group (in words)” value is reported as “significantly higher” and the “Hippocampus volume compared to preterm control group (in words)” value is “significantly higher”.

The record behind these values is patent US20150335602A1, “IMPROVEMENT OF COGNITIVE FUNCTION IN PRETERM INFANTS THAT ARE SMALL FOR GESTATIONAL AGE” (N.V. NUTRICIA, priority 2013, published 2015).
